{"source": "paper PMC8125603", "about": "“Species-Specific Regulation of TRPM2 by PI(4,5)P2 via the Membrane Interfacial Cavity” (International Journal of Molecular Sciences, 2021)", "key": {"[1]": {"target": "T1, nvTRPM2 (Nematostella vectensis, UniProt A7T1N0)", "T1 construct": "gene TRPM2; full-length wild-type cDNA in modified pIRES-hrGFP-2a, transient in HEK-293 cells; homotetramer; inside-out patches (C-terminal 3xHA tag only for surface expression tests)", "T1 sequence (A7T1N0 whole entry)": "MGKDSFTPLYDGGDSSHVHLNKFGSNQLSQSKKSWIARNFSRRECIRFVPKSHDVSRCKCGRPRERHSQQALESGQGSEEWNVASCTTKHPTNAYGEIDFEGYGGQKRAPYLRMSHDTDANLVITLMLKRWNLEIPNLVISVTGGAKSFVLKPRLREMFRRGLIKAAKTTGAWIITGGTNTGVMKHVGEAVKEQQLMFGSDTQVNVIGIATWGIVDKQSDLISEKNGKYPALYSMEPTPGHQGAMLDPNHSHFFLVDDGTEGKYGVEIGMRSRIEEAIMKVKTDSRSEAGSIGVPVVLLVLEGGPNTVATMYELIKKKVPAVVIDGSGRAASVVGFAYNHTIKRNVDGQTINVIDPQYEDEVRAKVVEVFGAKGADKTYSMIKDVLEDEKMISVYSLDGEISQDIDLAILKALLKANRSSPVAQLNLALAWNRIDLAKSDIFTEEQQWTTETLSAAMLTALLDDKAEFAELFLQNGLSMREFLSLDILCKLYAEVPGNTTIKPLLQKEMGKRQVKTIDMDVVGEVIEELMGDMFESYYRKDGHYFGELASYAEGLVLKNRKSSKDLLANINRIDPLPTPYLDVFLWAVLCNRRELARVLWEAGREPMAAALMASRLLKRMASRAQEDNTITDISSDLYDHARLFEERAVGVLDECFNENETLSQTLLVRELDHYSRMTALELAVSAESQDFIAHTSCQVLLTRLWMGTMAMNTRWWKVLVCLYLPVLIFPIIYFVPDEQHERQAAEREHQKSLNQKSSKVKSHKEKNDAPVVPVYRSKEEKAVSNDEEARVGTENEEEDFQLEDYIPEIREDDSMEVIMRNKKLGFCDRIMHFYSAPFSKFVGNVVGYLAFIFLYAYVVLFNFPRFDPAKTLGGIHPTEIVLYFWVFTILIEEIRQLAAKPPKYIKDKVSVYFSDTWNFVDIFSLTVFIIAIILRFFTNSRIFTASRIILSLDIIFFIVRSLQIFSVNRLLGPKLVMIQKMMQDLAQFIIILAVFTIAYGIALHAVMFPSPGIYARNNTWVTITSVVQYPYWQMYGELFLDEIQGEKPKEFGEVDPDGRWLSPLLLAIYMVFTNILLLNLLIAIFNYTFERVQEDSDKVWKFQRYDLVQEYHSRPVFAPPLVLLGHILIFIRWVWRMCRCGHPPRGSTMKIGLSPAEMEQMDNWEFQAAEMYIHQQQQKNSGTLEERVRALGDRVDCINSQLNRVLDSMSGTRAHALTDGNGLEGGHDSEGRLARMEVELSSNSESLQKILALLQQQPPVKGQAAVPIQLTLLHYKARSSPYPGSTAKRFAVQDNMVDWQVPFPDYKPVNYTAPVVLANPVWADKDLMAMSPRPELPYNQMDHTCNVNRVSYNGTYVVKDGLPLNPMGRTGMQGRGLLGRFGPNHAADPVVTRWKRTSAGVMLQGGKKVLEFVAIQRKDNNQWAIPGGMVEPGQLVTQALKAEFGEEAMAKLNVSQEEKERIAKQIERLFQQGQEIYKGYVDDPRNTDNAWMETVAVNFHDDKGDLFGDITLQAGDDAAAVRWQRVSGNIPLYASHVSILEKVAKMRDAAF", "assay": "inside-out patch clamp, HEK-293 cells, -60 mV, dose-response of current activation", "type": "biochemical"}, "[2]": {"target": "T2, hsTRPM2 (Homo sapiens, UniProt O94759)", "T2 construct": "gene TRPM2; full-length wild-type cDNA in modified pIRES-hrGFP-2a, transient in HEK-293 cells; homotetramer; inside-out patches (C-terminal 3xHA tag only for surface expression tests)", "T2 sequence (O94759 whole entry)": "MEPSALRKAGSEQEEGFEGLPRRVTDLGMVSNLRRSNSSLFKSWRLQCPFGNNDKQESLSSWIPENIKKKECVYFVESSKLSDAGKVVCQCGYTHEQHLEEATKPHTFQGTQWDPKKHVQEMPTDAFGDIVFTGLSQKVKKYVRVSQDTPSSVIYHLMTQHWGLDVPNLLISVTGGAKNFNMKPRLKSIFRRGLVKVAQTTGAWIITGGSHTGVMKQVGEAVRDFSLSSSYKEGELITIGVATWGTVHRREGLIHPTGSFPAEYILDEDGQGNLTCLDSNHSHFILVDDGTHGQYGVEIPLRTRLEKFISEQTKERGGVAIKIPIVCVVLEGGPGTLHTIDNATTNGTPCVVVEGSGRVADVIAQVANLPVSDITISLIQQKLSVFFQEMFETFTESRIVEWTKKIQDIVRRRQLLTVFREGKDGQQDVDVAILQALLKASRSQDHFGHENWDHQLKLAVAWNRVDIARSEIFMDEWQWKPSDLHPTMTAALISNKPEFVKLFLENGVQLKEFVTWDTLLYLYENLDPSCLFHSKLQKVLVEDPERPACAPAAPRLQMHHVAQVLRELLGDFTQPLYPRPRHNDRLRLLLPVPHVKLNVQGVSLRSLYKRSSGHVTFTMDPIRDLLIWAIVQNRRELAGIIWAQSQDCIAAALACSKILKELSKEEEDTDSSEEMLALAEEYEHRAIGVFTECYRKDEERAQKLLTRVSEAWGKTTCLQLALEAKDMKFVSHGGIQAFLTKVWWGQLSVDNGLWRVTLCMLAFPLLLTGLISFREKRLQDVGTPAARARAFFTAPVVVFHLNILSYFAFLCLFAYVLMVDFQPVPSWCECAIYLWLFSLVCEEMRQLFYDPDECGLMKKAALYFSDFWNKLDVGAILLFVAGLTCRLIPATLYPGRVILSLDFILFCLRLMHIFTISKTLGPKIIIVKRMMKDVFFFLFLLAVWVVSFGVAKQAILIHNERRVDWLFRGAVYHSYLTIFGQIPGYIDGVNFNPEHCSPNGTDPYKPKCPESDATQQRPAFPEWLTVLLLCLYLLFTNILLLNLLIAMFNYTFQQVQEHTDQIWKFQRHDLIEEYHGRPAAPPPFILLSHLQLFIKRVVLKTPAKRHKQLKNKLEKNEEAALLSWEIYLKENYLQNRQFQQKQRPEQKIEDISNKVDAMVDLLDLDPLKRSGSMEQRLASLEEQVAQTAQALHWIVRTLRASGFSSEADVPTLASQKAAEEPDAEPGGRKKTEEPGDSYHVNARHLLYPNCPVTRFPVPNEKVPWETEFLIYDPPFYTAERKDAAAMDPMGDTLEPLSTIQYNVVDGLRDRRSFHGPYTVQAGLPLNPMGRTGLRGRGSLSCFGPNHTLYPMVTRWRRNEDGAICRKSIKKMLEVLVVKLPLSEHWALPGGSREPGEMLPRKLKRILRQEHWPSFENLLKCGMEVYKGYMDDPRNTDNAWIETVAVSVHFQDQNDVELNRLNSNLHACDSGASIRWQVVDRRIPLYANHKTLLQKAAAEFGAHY", "assay": "inside-out patch clamp, HEK-293 cells, -60 mV, dose-response of current activation", "type": "biochemical"}}, "data": [{"smiles": "CCCCCCCC(=O)OC[C@H](COP(=O)(O)O[C@@H]1[C@H](O)[C@H](O)[C@@H](OP(=O)(O)O)[C@H](OP(=O)(O)O)[C@H]1O)OC(=O)CCCCCCC", "note": "[PIP2]", "values": [{"measurement": "EC50", "setting": "[1]", "value": "2.1 ± 0.2", "unit": "µM"}, {"measurement": "EC50", "setting": "[2]", "value": "11.9 ± 1.1", "unit": "µM"}]}]}
